According to patent publication US12186303B2, “Feed additive for cattle comprising n-acetyl-l-tryptophan as active ingredient” (CJ CHEILJEDANG CORPORATION, priority 2018, dated 2025):

Legend:
Korean native steers [1] = assay: Feed intake according to NALT feeding under cold stress conditions; type: in vivo, Korean native cattle; details: for Feed intake: 0.1% NALT
Source text: After grouping the animals by statistical analysis of initial body weights, the animals were bred in 1.0×1.5 m^2 individual pens during the experiment period. The feed was offered based on an amount of dry matter of daily total mixed ration (TMR) per head. After 7 days of an adaptation period for N-acetyl-L-tryptophan (NALT), a mixture of 0.1% N-acetyl-L-tryptophan (NALT) and the total mixed ration was fed to individual animals every morning at 8 a.m. for 6 weeks, and water was available ad libitum. Total amounts of L-tryptophan ingested by the control and NALT-treated group by feeding NALT were 7.37 g/day/head and 16.26 g/day/head, respectively. The experiment was performed such that the NALT-treated group ingested 8.89 g/day/head more L-tryptophan than that of the control. Meanwhile, results of growth performance analysis (body weight and average feed intake) and genetic analysis of loin tissue were obtained by statistically comparing and analyzing significant differences between the control and the NALT-treated group, and results of hematological analysis were obtained via statistical comparison and analysis depending on NALT treatment, experiment period (days), and interaction (treatment×days). These numerical values were expressed as average values, and a significance test was performed at the 5% level using Student's t-test by using the JMP 5.0 software package (SAS Institute Inc., Cary, NC, USA). Feed intake of each sentinel animal was calculated by measuring a total amount of feed offered and an amount left over every day.

Korean native steers [2] = assay: Serum hematological properties (biochemical autoanalyzer) under heat stress conditions; type: in vivo, Korean native cattle; set-up: GLO (globulin = TP − ALB) / BUN (blood urea nitrogen) / GLU (glucose) / NEFA (non-esterified fatty acid) / TG (triglyceride) / Na (sodium): unit not given here; details: for ALB (albumin) / BUN (blood urea nitrogen) / CPK (creatinine phosphokinase) / GLO (globulin = TP − ALB) / GLU (glucose) / K (potassium) / NEFA (non-esterified fatty acid) / Na (sodium) / TG (triglyceride) / TP (total protein): 0.1% NALT, serum
Source text: After grouping the animals by statistical analysis of initial body weights, the animals were bred in 1.0×1.5 m^2 individual pens during the experiment period. The feed was offered based on an amount of dry matter of daily total mixed ration (TMR) per head. After 7 days of an adaptation period for N-acetyl-L-tryptophan (NALT), a mixture of 0.1% N-acetyl-L-tryptophan (NALT) and the total mixed ration was fed to individual animals every morning at 8 a.m. for 6 weeks, and water was available ad libitum. Total amounts of L-tryptophan ingested by the control and the experimental group (NALT-treated group) by feeding NALT were 6.0 g/day/head and 18.2 g/day/head, respectively. The experiment was performed such that the NALT-treated group ingested 12.2 g/day/head more L-tryptophan than the control.
Meanwhile, results of growth performance analysis (body weight and average feed intake) and genetic analysis of loin tissue were obtained by statistically comparing and analyzing significant differences between the control and the NALT-treated group, and results of hematological analysis were obtained via statistical comparison and analysis depending on NALT treatment, experiment period (days), and interaction (treatment×days). These numerical values were expressed as average values, and a significance test was performed at the 5% level using Student's t-test by using a JMP 5.0 software package (SAS Institute Inc., Cary, NC, USA).
Blood samples were collected from a jugular vein of each sentinel animal before offering the feed at the starting day of the experiment (week 0), the mid-point of the experiment (week 5), and the final day of the experiment (week 10) and stored in a vacutainer (Becton Dickinson, Franklin Lakes, NJ, USA). Complete blood cell count (CBC) was performed using whole blood using a VetScan HM2 (Abaxis, Union City, CA, USA), and hematological properties were identified using serum with a biochemical autoanalyzer (FUJI DRI-CHEM 7000, Fujifilm, Tokyo, Japan). In addition, total protein (TP), albumin (ALB), creatinine phosphokinase (CPK), and blood urea nitrogen (BUN), which are related to blood protein metabolism, were analyzed; triglycerides (TG) and non-esterified fatty acid (NEFA), which are related to energy metabolism, were analyzed; and sodium (Na), chlorine (CI), and potassium (K), which are blood electrolytes, were analyzed.

Work on CC(=O)N[C@@H](Cc1c[nH]c2ccccc12)C(=O)O [NALT, N-acetyl-L-tryptophan] yielded a Feed intake (Korean native steers [1]; Days 0-6 (adaptation period)) of 8.56 kg, a Feed intake (Korean native steers [1]; Days 7-13) of 9.21 kg and a Feed intake (Korean native steers [1]; Days 7-48 (entire experiment period)) of 9.86 kg. The Feed intake (Korean native steers [1]; Days 14-20) was 9.56 kg, the Feed intake (Korean native steers [1]; Days 21-27) was 9.68 kg and the Feed intake (Korean native steers [1]; Days 28-34) was 10.22 kg. The Feed intake (Korean native steers [1]; Days 35-41) was 10.02 kg, the Feed intake (Korean native steers [1]; Days 42-48) was 10.56 kg and the “Feed intake compared with the control” value (Korean native steers [1]; adaptation period (days 0-6)) was “No statistically significant difference”. The “Feed intake compared with the control” value (Korean native steers [1]; days 7-41) was “no statistically significant difference”, the “Increase in average feed intake per head compared to the control” value (Korean native steers [1]; days 7-48) was “about 4.6%” and the “Increase in feed intake compared to the control” value (Korean native steers [1]; days 42-48) was “about 1.02 kg”. The “Average feed intake per head” value (Korean native steers [1]; entire experiment period (days 7-48)) was 9.86 kg/day/head, the “Hematological analysis indicators (Table 14), effect of treatment with 0.1% NALT” value (Korean native steers [2]) was “No statistically significant difference” and the “ALB (albumin)” value (Korean native steers [2]; Day 0) was 3.3. For the same compound, the “BUN (blood urea nitrogen)” value (Korean native steers [2]; Day 0) was 16.7, the “CPK (creatinine phosphokinase)” value (Korean native steers [2]; Day 0) was 112 and the “GLO (globulin = TP − ALB)” value (Korean native steers [2]; Day 0) was 2.8. The “GLU (glucose)” value (Korean native steers [2]; Day 0) was 49.6, the “K (potassium)” value (Korean native steers [2]; Day 0) was 4.7 and the “NEFA (non-esterified fatty acid)” value (Korean native steers [2]; Day 0) was 139. The “Na (sodium)” value (Korean native steers [2]; Day 0) was 141.3, the “TG (triglyceride)” value (Korean native steers [2]; Day 0) was 25.5 and the “TP (total protein)” value (Korean native steers [2]; Day 0) was 6.1. The “ALB (albumin)” value (Korean native steers [2]; Day 35) was 3.6, the “BUN (blood urea nitrogen)” value (Korean native steers [2]; Day 35) was 19.8 and the “CPK (creatinine phosphokinase)” value (Korean native steers [2]; Day 35) was 267. The “GLO (globulin = TP − ALB)” value (Korean native steers [2]; Day 35) was 2.9, the “GLU (glucose)” value (Korean native steers [2]; Day 35) was 39.1 and the “K (potassium)” value (Korean native steers [2]; Day 35) was 4.8. For the same compound, the “NEFA (non-esterified fatty acid)” value (Korean native steers [2]; Day 35) was 167, the “Na (sodium)” value (Korean native steers [2]; Day 35) was 142.6 and the “TG (triglyceride)” value (Korean native steers [2]; Day 35) was 19.1. For the same compound, the “TP (total protein)” value (Korean native steers [2]; Day 35) was 6.5, the “ALB (albumin)” value (Korean native steers [2]; Day 70) was 3.5 and the “BUN (blood urea nitrogen)” value (Korean native steers [2]; Day 70) was 18.5. For the same compound, the “CPK (creatinine phosphokinase)” value (Korean native steers [2]; Day 70) was 276, the “GLO (globulin = TP − ALB)” value (Korean native steers [2]; Day 70) was 2.9 and the “GLU (glucose)” value (Korean native steers [2]; Day 70) was 56.3. The “K (potassium)” value (Korean native steers [2]; Day 70) was 4.9, the “NEFA (non-esterified fatty acid)” value (Korean native steers [2]; Day 70) was 168 and the “Na (sodium)” value (Korean native steers [2]; Day 70) was 141.1. For the same compound, the “TG (triglyceride)” value (Korean native steers [2]; Day 70) was 22.1 and the “TP (total protein)” value (Korean native steers [2]; Day 70) was 6.3.
